From publication PMC9037111, “Structure-based design, synthesis, and biological evaluation of novel piperine–resveratrol hybrids as antiproliferative agents targeting SIRT-2” (RSC Advances, 2021)
Read-outs that look alike come from different tables or passages of the source.

What was measured:
Assay in all cases: cells
Design in all cases: species or system NCI-60 human tumour cell lines; NCI-60 one-dose screen at 10 uM, percent growth inhibition versus untreated control cells
[1] = system: SR; details: Homo sapiens, SR, growth inhibition, one dose
[2] = system: M14; details: Homo sapiens, M14, growth inhibition, one dose
[3] = system: MDA-MB-435; details: Homo sapiens, MDA-MB-435, growth inhibition, one dose
[4] = system: IGROV1; details: Homo sapiens, IGROV-1, growth inhibition, one dose
[5] = system: LOX IMVI; details: Homo sapiens, LOX IMVI, growth inhibition, one dose
[6] = system: MDA-MB-231/ATCC; details: Homo sapiens, MDA-MB-231, growth inhibition, one dose
[7] = system: T-47D; details: Homo sapiens, T47D, growth inhibition, one dose
[8] = system: NCI-H460; details: Homo sapiens, NCI-H460, growth inhibition, one dose
[9] = system: SK-MEL-28; details: Homo sapiens, SK-MEL-28, growth inhibition, one dose
[10] = system: HOP-62; details: Homo sapiens, HOP-62, growth inhibition, one dose
[11] = system: NCI-H226; details: Homo sapiens, NCI-H226, growth inhibition, one dose
[12] = system: OVCAR-3; details: Homo sapiens, OVCAR-3, growth inhibition, one dose
[13] = system: NCI/ADR-RES; details: Homo sapiens, NCI/ADR-RES, growth inhibition, one dose
[14] = system: UACC-257; details: Homo sapiens, UACC-257, growth inhibition, one dose
[15] = system: HS 578 T; details: Homo sapiens, Hs-578T, growth inhibition, one dose
[16] = system: HCT-116; details: Homo sapiens, HCT-116, growth inhibition, one dose
[17] = system: SNB-19; details: Homo sapiens, SNB-19, growth inhibition, one dose
[18] = read-out: Growth% inhibition / 5d
[19] = read-out: Growth% inhibition / 5a
[20] = read-out: Growth% inhibition / 5b
[21] = read-out: Growth% inhibition / 5e
[22] = read-out: Growth% inhibition / 5h

Structure (SMILES): CN(C)c1ccc(C=NNC(=O)/C=C/C=C/c2ccc3c(c2)OCO3)cc1 (mixture of isomers) [5d, (2E,4E)-5-(Benzo[d][1,3]dioxol-5-yl)-N′-((E/Z)-4-(dimethylamino)-benzylidene)penta-2,4-dienehydrazide]
- inhibition at 10 µM [1, 18]: 62%
- inhibition at 10 µM [2, 18]: 22.2%
- inhibition at 10 µM [3, 18]: 70.1%
- inhibition at 10 µM [4, 18]: 10.1%
- inhibition at 10 µM [5, 18]: 11.1%

Structure (SMILES): O=C(/C=C/C=C/c1ccc2c(c1)OCO2)NN=Cc1ccc(O)cc1 [5a, (2E,4E)-5-(Benzo[d][1,3]dioxol-5-yl)-N′-((E,Z)-4-hydroxybenzylidene)penta-2,4-dienehydrazide]
- inhibition at 10 µM [1, 19]: 64%
- inhibition at 10 µM [6, 19]: 17.2%
- inhibition at 10 µM [2, 19]: 17.1%
- inhibition at 10 µM [3, 19]: 73%
- inhibition at 10 µM [7, 19]: 18.6%
- inhibition at 10 µM [4, 19]: 24.7%
- inhibition at 10 µM [5, 19]: 38.5%

Structure (SMILES): O=C(/C=C/C=C/c1ccc2c(c1)OCO2)N/N=C/c1ccc(O)cc1O [5b, (2E,4E)-5-(Benzo[d][1,3]dioxol-5-yl)-N′-((E)-2,4-dihydroxybenzylidene)penta-2,4-dienehydrazide]
- inhibition at 10 µM [1, 20]: 78.7%
- inhibition at 10 µM [6, 20]: 65.6%
- inhibition at 10 µM [2, 20]: 69.7%
- inhibition at 10 µM [8, 20]: 86%
- inhibition at 10 µM [9, 20]: 57.9%
- inhibition at 10 µM [3, 20]: 67.4%
- inhibition at 10 µM [10, 20]: 72.9%
- inhibition at 10 µM [7, 20]: 76.1%
- inhibition at 10 µM [11, 20]: 62.4%
- inhibition at 10 µM [4, 20]: 71.1%
- inhibition at 10 µM [12, 20]: 90.3%
- inhibition at 10 µM [13, 20]: 94.8%
- inhibition at 10 µM [5, 20]: 90.3%
- inhibition at 10 µM [14, 20]: 71.5%
- inhibition at 10 µM [15, 20]: 29.8%
- inhibition at 10 µM [16, 20]: 91.3%
- inhibition at 10 µM [17, 20]: 50.9%

Structure (SMILES): CCN(CC)c1ccc(/C=N/NC(=O)/C=C/C=C/c2ccc3c(c2)OCO3)c(O)c1 [5e, (2E,4E)-5-(Benzo[d][1,3]dioxol-5-yl)-N′-((E)-4-(diethylamino)-2-hydroxybenzylidene)penta-2,4-dienehydrazide]
- inhibition at 10 µM [1, 21]: 82.4%
- inhibition at 10 µM [6, 21]: 56.8%
- inhibition at 10 µM [2, 21]: 63.6%
- inhibition at 10 µM [8, 21]: 80.2%
- inhibition at 10 µM [9, 21]: 48%
- inhibition at 10 µM [3, 21]: 51.1%
- inhibition at 10 µM [10, 21]: 71.5%
- inhibition at 10 µM [7, 21]: 73.7%
- inhibition at 10 µM [11, 21]: 50.5%
- inhibition at 10 µM [4, 21]: 61.8%
- inhibition at 10 µM [12, 21]: 95.1%
- inhibition at 10 µM [13, 21]: 82.5%
- inhibition at 10 µM [5, 21]: 81.8%
- inhibition at 10 µM [14, 21]: 75.8%
- inhibition at 10 µM [15, 21]: 31.9%
- inhibition at 10 µM [16, 21]: 92.1%
- inhibition at 10 µM [17, 21]: 39%

Structure (SMILES): C/C(=N\NC(=O)/C=C/C=C/c1ccc2c(c1)OCO2)c1ccc(Br)cc1 [5h, (2E,4E)-5-(Benzo[d][1,3]dioxol-5-yl)-N′-((E)-1-(4-bromophenyl)ethylidene)penta-2,4-dienehydrazide]
- inhibition at 10 µM [1, 22]: 93.3%
- inhibition at 10 µM [6, 22]: 21%
- inhibition at 10 µM [2, 22]: 26.7%
- inhibition at 10 µM [8, 22]: 60.4%
- inhibition at 10 µM [9, 22]: 14.2%
- inhibition at 10 µM [3, 22]: 13.6%
- inhibition at 10 µM [10, 22]: 33.2%
- inhibition at 10 µM [7, 22]: 65%
- inhibition at 10 µM [11, 22]: 24.1%
- inhibition at 10 µM [4, 22]: 29.7%
- inhibition at 10 µM [12, 22]: 24.4%
- inhibition at 10 µM [13, 22]: 33.9%
- inhibition at 10 µM [5, 22]: 38.3%
- inhibition at 10 µM [14, 22]: 12%
- inhibition at 10 µM [15, 22]: 86.5%
- inhibition at 10 µM [16, 22]: 12.3%
- inhibition at 10 µM [17, 22]: 14.5%
